Measurements as given in patent publication US10195187B2, “Oxybutynin-xanomeline transdermal therapeutic system combinations” (Chase Pharmaceuticals Corporation, priority 2015, dated 2019).

Experiments:
muscarinic receptors = conditions: oral and iontophoretic patch administration; cited from earlier work
Male Swiss mice [1] = test: Antagonism of xanomeline-induced diarrhea in mice by oxybutynin (fecal pellet count); format: in vivo, mouse; conditions: oxybutynin i.p. 0.3 to 30 mg/kg, 30 min before xanomeline 30 mg/kg
Experimental: The total number of fecal pellets for each mouse was counted over time. An analysis of variance (ANOVA) was performed on the results. Fisher's Protected Least Significant Difference was used for pairwise comparisons; p values≤0.05 were considered significant. Grubbs' test (http (hypertext transfer protocol) www at graphpad.com/quickcalcs/Grubbs1.cfm) was used to detect outliers for each parameter in each experimental group. […] Mice were placed individually in cages without any bedding materials. During the experiment the number of fecal pellets was counted at different time-points as outlined below:
T0: administration of oxybutinin.
T30 min: administration of vehicle or xanomeline.
T 30 min to T 2.5 h: counting of accumulated fecal pellets excreted.
T+2.5 h to T+4.5 h: counting of accumulated fecal pellets excreted.
The total number of fecal pellets for each mouse was counted over time. An analysis of variance (ANOVA) was performed on the results. Fisher's Protected Least Significant Difference was used for pairwise comparisons. The p value≤0.05 were considered significant. Grubbs' test (http (hypertext transfer protocol) www at graphpad.com/quickcalcs/Gnibbs1.cfm) was used to detect outliers for each parameter in each experimental group.

Male Swiss mice [2] = test: T-maze continuous alternation task (T-CAT) in mice; format: in vivo, mouse
Source text: Evaluation of Cognition with Oxybutynin and Xanomeline in the T-maze Alternation Task in Mice
The T-maze continuous alternation task (T-CAT) is useful as model for studying compounds with cognitive enhancing properties. The T-maze consists of 2 choice arms and 1 start arm mounted to a square center. Manual doors are provided to close specific arms during the force choice alternation task. Male Swiss mice (4-6 weeks old), N=10 per treatment group were used, and were pre-treated with:
Thirty minutes later mice were treated with either vehicle or one of 4 doses of xanomeline:
a dose that caused diarrhea.
Mice were randomly assigned to one of the different experimental treatment groups. Each animal was identified by its group name, cage number, series (day) of experiment, and number (1 to 10) written with permanent ink on the tail.
The T-maze apparatus is made of gray Plexiglas with a main stem (55 cm long×10 cm wide×20 cm high) and two arms (30 cm long×10 cm wide×20 cm high) positioned at 90 degree angle relative to the main stem. A start box (15 cm long×10 cm wide) is separated from the main stem by a guillotine door. Horizontal doors are also provided to close specific arms during the force choice alternation task. The experimental protocol consisted of one single session, which started with 1 “forced-choice” trial, followed by 14 “free-choice” trials. In the first “forced-choice” trial, animals were confined for 5 seconds to the start arm and then were released while either the left or the right goal arm was blocked by the horizontal door. Animals then negotiated the maze, eventually entering the open goal arm, and returned to the start position. […] The percentage of alternation over the 14 free-choice trials was determined for each mouse and was used as an index of working memory performance. […] The drug-induced improvement of memory was calculated by setting the respective response of the saline/vehicle as 100% and that of the test group as 0% reversion. […]

[3] = McCrery and Appell 2006; cited from earlier work
Male Swiss mice [4] = test: Dose-response to xanomeline in a mouse model of diarrhea (fecal pellet count); format: in vivo; conditions: xanomeline i.p. 0.3 to 30 mg/kg
Source text: Study 1—Establishment of the Dose-Response to Xanomeline in a Mouse Model of Diarrhea.
Male Swiss mice (4-6 weeks old), N=10 per treatment group were used, and treated intra-peritoneally (i.p.) with either vehicle (vehicle group) or increasing doses of xanomeline, a representative muscarinic agonist. Mice were randomly assigned to one of two experimental groups (vehicle; or increasing doses of xanomeline). Each animal was identified by its group name, cage number, series (day) of experiment, and number (1 to 10) written with permanent ink on the tail. Mice were placed individually in cages without any bedding materials. During the experiment the number of fecal pellets were counted at different time-points, starting one hour before the time of the administration of the test compound (T0), as outlined below:
T−1 h to T0: counting of the accumulated fecal pellets excreted.
T0: administration of the test compound.
T0 to T+2 h: counting of the accumulated fecal pellets excreted.
T+2 h to T+4 h: counting of the accumulated fecal pellets excreted.
The total number of fecal pellets for each mouse was counted over time. An analysis of variance (ANOVA) was performed on the results. […] During the experiment the number of fecal pellets was counted at different time-points as outlined below: […]

[5] = test system: patients with Alzheimer disease; conditions: cited from earlier work

In the case of `NC(=O)C(c1ccccc1)(c1ccccc1)[C@@H]1CCN(CCc2ccc3c(c2)CCO3)C1` [darifenacin], the “effectiveness relative to other muscarinic antagonists in combination with muscarinic agonists” value (muscarinic receptors) is listed as “less effective than the other muscarinic antagonists”.
In the case of `CCN(CC)CC#CCOC(=O)C(O)(c1ccccc1)C1CCCCC1` (stereo not shown) [oxybutynin, 4-diethylaminobut-2-ynyl 2-cyclohexyl-2-hydroxy-2-phenylethanoate], the “antagonism of xanomeline-induced diarrhea (fecal pellets)” value (Male Swiss mice [1]) is given as “dose-dependently antagonized the diarrhea induced by xanomeline”, the “ability to perform the T-maze test after oxybutynin pretreatment” value (Male Swiss mice [2]; i.p. oxybutynin 30 min before xanomeline) is given as “restored the animals' ability to perform the T-maze test” and the “crossing of the blood brain barrier” value [3] is given as “able to cross the blood brain barrier”.
For `CCCCCCOc1nsnc1C1=CCCN(C)C1` [xanomeline, 3-[4-(Hexyloxy)-1,2,5-thiadiazol-3-yl]-1,2,5,6-tetrahydro-1-methylpyridine], the “diarrhea (number of fecal pellets excreted)” value (Male Swiss mice [4]) was “dose-dependently causes diarrhea”, the “ability to perform the T-maze test at the higher dose” value (Male Swiss mice [2]; i.p. xanomeline, higher dose (dose that caused diarrhea)) was “animals were too sick to perform the test” and the “performance in the T-maze (percentage of alternation)” value (Male Swiss mice [2]; i.p. xanomeline, mice) was “dose-dependent increase in performance in the T-maze”. For the same molecule, the “cognitive and behavioral symptoms of Alzheimer disease compared to placebo” value ([5]; 6-month trial, Bodick et al, 1997) was “significantly improve cognitive and behavioral symptoms of Alzheimer disease”, the discontinuation rate ([5]; Alzheimer's patient population, Mirza et al. 2003) was “higher than 50%” and the side effects ([5]; patients with Alzheimer disease, Bodick et al, 1997) was “dose-dependent unacceptable side effects, including bradycardia, gastro-intestinal distress, excessive salivation, and sweating”.
